Consider one compound from patent US20170107207A1, “AMINOPYRAZOLONE DERIVATIVE” (DAIICHI SANKYO COMPANY, LIMITED, priority 2014, published 2017).

Test [1] deals with Liver cancer cell line HUH-7 cells. In words: Antitumor test, mouse subcutaneous transplantation model, HUH-7. The test is classed as in vivo. Conditions: HUH-7 in nude mice, 4 consecutive days, tumor measured three days after final administration. The source says: (§1) In vivo test of test compound: Antitumor test using mouse subcutaneous transplantation model
Liver cancer cell line HUH-7 cells were dissociated from a culture flask by trypsin treatment, then suspended in an RPMI1640 medium containing 10% FBS, and then centrifuged to remove the supernatant. The cells were washed with PBS twice and then suspended in BD Matrigel Basement Membrane Matrix (manufactured by BD Biosciences). The cell suspension was subcutaneously transplanted at a dose of 5×10^6 cells/mouse to the right axillary regions of 6-week-old nude mice (CAnN.Cg-Foxn1[nu]/CrlCrlj[Foxn1nu/Foxn1nu], Charles River Laboratories Japan, Inc.). The test was conducted by using cancer-bearing mice having an estimated tumor volume (major axis×minor axis×minor axis/2) of 70 to 180 mm3 and grouping the cancer-bearing mice without significant difference in average estimated tumor volume from a negative control group. The compound of Example 113 was suspended in solvent (EtOH/DMA/Solutol HS-15/PEG400/5% HMPC). The suspension was orally administered to each mouse twice a day (BID) at a dose of 75 or 150 mg/kg for 4 consecutive days. Three days after the final administration date, the tumor sizes were measured.
The rate of tumor growth inhibition was also calculated in this test according to the following expression and is shown in a table. […]

Test [2] concerns human lymphoma cell line RAMOS cells. In words: Cell growth inhibition test using RAMOS cell, MTT assay. The test is classed as cell-based. Conditions: 50% growth inhibition concentration. The gist of the method:
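Cells in RPMI1640 with 10% FBS were exposed to compound (DMSO ≤1%) for 3 days at 37° C, 5% CO2. Viability was read by MTT (4 h, formazan in DMSO, OD 540/660 nm) against a day-0 plate; GI50 was interpolated from T/C % growth rates.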
(Tetrazolium assays rely on reduction of a dye to a coloured formazan, in cell work by metabolically active cells.)

Test [3] relates to Lymphoma cell line RAMOS cells. Description: Antitumor test, mouse subcutaneous transplantation model, RAMOS. Conditions: RAMOS in SCID mice, 4 consecutive days, tumor measured next day. The test is classed as in vivo.
Description: as §1
Lymphoma cell line RAMOS cells were suspended in a culture flask and then centrifuged to remove a supernatant. The cells were washed with PBS (phosphate buffered saline, Life Technologies Corp.) twice and then suspended in PBS. The cell suspension was subcutaneously transplanted at a dose of 1×10^7 cells/mouse to the right axillary regions of 6-week-old SCID mice (FOX CHASE SCID C.B.17/Icr-scid/scidJcl, CLEA Japan, Inc.). The test was conducted by using cancer-bearing mice having an estimated tumor volume (major axis×minor axis×minor axis/2) of 200 to 350 mm3 and grouping the cancer-bearing mice without significant difference in average estimated tumor volume from a negative control group. The compound of Example 113 was suspended in a solvent (EtOH/DMA/Solutol HS-15/PEG400/5% HMPC). The suspension was orally administered to each mouse twice a day (BID) at a dose of 25, 50, 100, or 200 mg/kg for 4 consecutive days. On the next day, the tumor sizes were measured.
(§2) The rate of tumor growth inhibition was also calculated in this test according to the following expression and is shown in a table.
(§3) Rate of tumor growth inhibition (%)=100−(Average value of the tumor volumes of the test compound administration group)/(Average value of the tumor volumes of the vehicle administration group)×100.

Test [4] has as its system Lung cancer cell line COR-L23 cells. In words: Antitumor test, mouse subcutaneous transplantation model, COR-L23. The test is classed as in vivo. To be noted: COR-L23 in nude mice, 4 consecutive days, tumor measured next day.
Description: as §1
Lung cancer cell line COR-L23 cells were dissociated from a culture flask by trypsin treatment, then suspended in an RPMI1640 medium containing 10% FBS, and then centrifuged to remove the supernatant. The cells were washed with this medium twice and then suspended in PBS. The cell suspension was subcutaneously transplanted at a dose of 5×10^6 cells/mouse to the right axillary regions of 6-week-old nude mice (BALB/cAJc1-nu/nu, CLEA Japan, Inc.). The test was conducted by using cancer-bearing mice having an estimated tumor volume (major axis×minor axis×minor axis/2) of 100 to 150 mm3 and grouping the cancer-bearing mice without significant difference in average estimated tumor volume from a negative control group. The compound of Example 113 was suspended in solvent (EtOH/DMA/Solutol HS-15/PEG400/5% HMPC). The suspension was orally administered to each mouse once a day (QD) at a dose of 75, 150, or 300 mg/kg for 4 consecutive days. On the next day, the tumor sizes were measured.
as §2, §3

Consider `CCOc1cc(F)c(Cl)cc1C(=O)NCC(C)(C)CC(=O)Nc1c(COC)n(C)n(-c2ccccc2)c1=O` [Example 113, 5-Chloro-2-ethoxy-4-fluoro-N-(4-{[5-(methoxymethyl)-1-methyl-3-oxo-2-phenyl-2,3-dihydro-1H-pyrazol-4-yl]amino}-2,2-dimethyl-4-oxobutyl)benzamide], for which the “Rate of tumor growth inhibition (%)” value in test [1] (75 mg/kg orally BID) is 46%; in test [1] (150 mg/kg orally BID), 63%; in test [3] (25 mg/kg orally BID), 35%; in test [3] (50 mg/kg orally BID), 56%; in test [3] (100 mg/kg orally BID), 72%; in test [3] (200 mg/kg orally BID), 75%. For the same compound, the “Rate of tumor growth inhibition (%)” value in test [4] (75 mg/kg orally QD) is given as 39%; in test [4] (150 mg/kg orally QD), 52%; in test [4] (300 mg/kg orally QD) it was 81%. The GI50 (usually the concentration that inhibits growth by half) in test [2] was 47 nM.
